Results from patent US10639382B2, “Method for treating leukemia” (National Guard Health Affairs, priority 2017, dated 2020).
Counter-ions that a name gives are not always drawn. Like-named read-outs stand apart in the source and are kept apart here. Starred links: 1 amine or outer side, 2 acyl side, 3 side chain; linkers in the order of their positions; H or OH if unused. Positions of bridges follow the written chain, without caps; N, C: chain ends. Non-standard residues stand in square brackets, D forms with d. Residues, ends and D or L forms follow the SMILES beside them. Chains are numbered I, II in the order given. Actinocin(9to1) = Cc1c2oc3c(C)ccc(C(=O)[*:1])c3nc-2c(C(=O)[*:2])c(N)c1=O; NMeV = CN[C@H](C(=O)O)C(C)C; Sar = CNCC(=O)O

How the values were obtained:
Assay type in all cases: cell-based, human
[1] = test system: PBMCs from CML patients; assay: Primary screening of FDA approved drug library, TitreGlo/CellTiter-Glo cell viability, PBMCs from CML patients; details: for inhibition at 10 µM: Homo sapiens, PBMC, read-out: % Inhibition, CML Average
Protocol: (§1) Whole blood was taken from experimental group patients and control group patients. The collected blood was transferred to EDTA tubes with a 5 mL pipette and a pipette aid and then to each EDTA tubes corresponding 50 ml centrifuge tubes. All the blood from one patient was placed into 1 tube (50 mL) and an equal volume of PBS was added to the 50 mL centrifuge tube. The sample was then mixed by either inverting the tube or pipetting up & down. The blood was transferred into tow 50 mL leucosep tube and centrifuged at room temperature (18-20° C.) for 15 minutes at 800×g with the brake turned off and acceleration at 2/deceleration at zero. After centrifugation, the white cell interface (buffy coat) was removed by pasture pipette and transferred to the new appropriately labelled 50 ml centrifuge tube. 25 mL PBS was added to the white cell interface (buffy coat) and the mix was centrifuged for 10 minutes at room temperature at 400×g with the brake off and acceleration at 4 & deceleration at 2. The supernatant was discarded from the pellet carefully in an appropriate manner. The pellet was washed another time with 20 mL by centrifugation for 5 minutes as above. The pellet was re-suspended in 5 mL and cells were counted using V-Cell. The cells were then either used directly as fresh for screening or frozen in liquid nitrogen in 10% DMSO/RPMPI media until use.
(§2) The assay used for TitreGlo (Promega) to measure cell viability based on the ATP production. […] The assay was developed in a 384-well plate with 2500 cell/well in 50 uL total volume. Alternatively, the assay could be developed in a 96-well plate with 10,000 cells/well. […] Z′ as a statistics factor was calculated as follows:
(§3) Each compound from the ENZO FDA SCREEN-WELL® FDA approved drug library V2 (0.10 μl in 100% DMSO) was transferred to white, 384-well, PS, Cellstar plates (Greiner Bio-One) using the Echo® Liquid Handler (Labcyte Inc.). Each plate contained one column for the High/Low Controls. The Low Control (1% DMSO v/v in column 23, no cells) and the High Control (final 1% DMSO v/v in column 24, with cells) were employed to calculate the Z′ for each assay plate. […] At 24 h post seeding, baseline growth was assessed using a control plate and CellTiter-Glo (CTG) reagent (Promega Corporation). Briefly, 20 μL/well of CTG detection mix was added and plates were read using an EnVision Multimode plate reader (PerkinElmer) after 10 min incubation in the dark. The raw luminescence signal was normalized in ActivityBase XE with outliers in control wells eliminated according to the 3-sigma method to yield percentage of cell viability by using the High Control (HC) containing cells in 1% DMSO v/v (Carl Roth) and the Low Control containing 1% DMSO v/v (Carl Roth). All Medium-Throughput Screening experiments were performed in duplicate for each patient. […] The raw luminescence signal was processed using Graph Pad Prism (Graph Pad Software Inc.) with outliers in control wells eliminated according to the 3-sigma method. The dose-response curves were analyzed using a 4 parameter sigmoidal fit to obtain plausible results in the case non-sigmoidal dose-response curves.
(§4) Each average patient samples were plotted against average of the control samples to identify the positive hits.
Samples from 4 patients were screened against the FDA approved drug library where the Negative Control (High control) contained cells treated with DMSO and the Positive Control (Low control) were based using no cells. The screening was carried out in 96 well plates. The raw luminescence counts were normalized and the % Inhibition was calculated relative to the high control (0% Inhibition) and the low control (100% Inhibition).

[2] = test system: PBMCs from CLL patients; assay: Primary screening of FDA approved drug library, TitreGlo/CellTiter-Glo cell viability, PBMCs from CLL patients; details: for inhibition at 10 µM: Homo sapiens, PBMC, read-out: % Inhibition, CLL Average
Protocol: as §1, §2, §3
(§5) The Screen-Well FDA approved drug library was screened, which contains 780 approved drugs. […] The final DMSO concentration in the assay plate was 0.1% of total volume. […] The average of all four control samples was then calculated and used to determine the positive “hits” in patients' samples.
as §4

[3] = test system: PBMCs from AML patients; assay: Primary screening of FDA approved drug library, TitreGlo/CellTiter-Glo cell viability, PBMCs from AML patients; details: for inhibition at 10 µM: Homo sapiens, PBMC, read-out: % Inhibition, AML Average
Protocol: as §1, §2, §3, §5, §4

[4] = test system: PBMCs from ALL patients; assay: Primary screening of FDA approved drug library, TitreGlo/CellTiter-Glo cell viability, PBMCs from ALL patients; details: for inhibition at 10 µM: Homo sapiens, PBMC, read-out: % Inhibition, ALL Average
Protocol: as §1, §2, §3, §5, §4

[5] = compound 10 uM, PBMCs from CML patients, average over patients, relative to high control (0%) and no-cell low control (100%)
[6] = compound 10 uM, PBMCs from CLL patients, average over patients, relative to high control (0%) and no-cell low control (100%)
[7] = compound 10 uM, PBMCs from AML patients, average over patients, relative to high control (0%) and no-cell low control (100%)
[8] = compound 10 uM, PBMCs from ALL patients, average over patients, relative to high control (0%) and no-cell low control (100%)

SMILES | inhibition at 10 µM [1, 5] [%] | inhibition at 10 µM [2, 6] [%] | inhibition at 10 µM [3, 7] [%] | inhibition at 10 µM [4, 8] [%] | also measured
CC(C)(C)C(=O)OCOP(=O)(COCCn1cnc2c(N)ncnc21)OCOC(=O)C(C)(C)C [Adcfovir Dipivoxil] | 63.7 | 43.9 | 72.8 | 96 | –
CN1CCc2cccc3c2[C@H]1Cc1ccc(O)c(O)c1-3 [Apomorphine HCl Hemihydrate] | 89.4 | 27.9 | 39.5 | 37.3 | –
CC(=O)OC[C@H]1O[C@@H]([S-])[C@H](OC(C)=O)[C@@H](OC(C)=O)[C@@H]1OC(C)=O.CCP(CC)CC.[Au+] [Auranofin] | – | – | – | – | % Inhibition, CML Average [1, 5]: 94.9%; % Inhibition, CLL Average [2, 6]: 96.0%; % Inhibition, AML Average [3, 7]: 96.7%; % Inhibition, ALL Average [4, 8]: 102.9%
Clc1ccc(CCC(Cn2ccnc2)Sc2c(Cl)cccc2Cl)cc1 (stereo not drawn) [Butoconazole Nitrate] | 58.5 | 44.1 | 46.6 | 40.7 | –
[H]/N=C(\N/C(=N/[H])NCCCCCCNC(=N)NC(=N)Nc1ccc(Cl)cc1)Nc1ccc(Cl)cc1 [Chlorhexidine Dihydrochloride] | 59.9 | 70.3 | 26.9 | 53.6 | –
C[C@@H](NCCCc1cccc(C(F)(F)F)c1)c1cccc2ccccc12 [Cinacalcet HCl] | 63.3 | 28.6 | 43.2 | 41.9 | –
Nc1nc(Cl)nc2c1ncn2[C@@H]1O[C@H](CO)[C@@H](O)[C@@H]1F [Clofarabine] | 21.9 | 41.3 | -20.6 | 68.1 | –
Nc1ccn([C@@H]2O[C@H](CO)[C@@H](O)[C@@H]2O)c(=O)n1 [Cytarabine] | 58.8 | 26.6 | 66.1 | 49.2 | –
Cc1c2oc3c(C)ccc(C(=O)N[C@@H]4C(=O)N[C@H](C(C)C)C(=O)N5CCC[C@H]5C(=O)N(C)CC(=O)N(C)[C@@H](C(C)C)C(=O)O[C@@H]4C)c3nc-2c(C(=O)N[C@@H]2C(=O)N[C@H](C(C)C)C(=O)N3CCC[C@H]3C(=O)N(C)CC(=O)N(C)[C@@H](C(C)C)C(=O)O[C@@H]2C)c(N)c1=O [Dactinomycin (=Actinomycin D), Dactinomycin] (I: T[dV]P[Sar][NMeV] / II: T[dV]P[Sar][NMeV]; ester I:1-I:C, II:1-II:C; linker I:N-II:N via Actinocin(9to1)) | 24.4 | 42.9 | 60.4 | 66.5 | –
COc1cccc2c1C(=O)c1c(O)c3c(c(O)c1C2=O)C[C@@](O)(C(C)=O)C[C@@H]3O[C@H]1C[C@H](N)[C@H](O)[C@H](C)O1 [Daunorubicin HCl] | 67.6 | 65.5 | 64 | 78.4 | –
C[C@H]1O[C@@H](O[C@H]2[C@@H](O)C[C@H](O[C@H]3[C@@H](O)C[C@H](O[C@H]4CC[C@@]5(C)[C@H](CC[C@@H]6[C@@H]5C[C@@H](O)[C@]5(C)[C@@H](C7=CC(=O)OC7)CC[C@]65O)C4)O[C@@H]3C)O[C@@H]2C)C[C@H](O)[C@@H]1O [Digoxin] | 76.8 | 30.1 | -33.2 | 32 | –
CCN(CC)C(=S)SSC(=S)N(CC)CC [Disulfiram] | 92.4 | -45.4 | 64 | 91.5 | –
CC(CCc1ccc(O)cc1)NCCc1ccc(O)c(O)c1 (stereo not drawn) [Dobutamine HCl] | 25.3 | -5 | -10.5 | 79.6 | –
COc1cccc2c1C(=O)c1c(O)c3c(c(O)c1C2=O)C[C@@](O)(C(=O)CO)C[C@@H]3O[C@H]1C[C@H](N)[C@H](O)[C@H](C)O1 [Doxorubicin HCl] | 36.7 | 67.2 | 73.6 | 72.6 | –
COc1cccc2c1C(=O)c1c(O)c3c(c(O)c1C2=O)C[C@@](O)(C(=O)CO)C[C@@H]3O[C@H]1C[C@H](N)[C@@H](O)[C@H](C)O1 [Epirubicin HCl] | 5 | 64.3 | 67.1 | 74.4 | –
NC(N)=Nc1nc(CSCCC(N)=NS(N)(=O)=O)cs1 [Famotidine] | 17.1 | 39.2 | 5.3 | 13.4 | –
CCCCCCCCc1ccc(CCC(N)(CO)CO)cc1 [Fingolimod] | 76.1 | 47.9 | 81.5 | 58.9 | –
O=C(NCC1CCCCN1)c1cc(OCC(F)(F)F)ccc1OCC(F)(F)F (stereo not drawn) [Flecainide Acetate] | -1 | 50.2 | 13 | -18.3 | –

SMILES | inhibition at 10 µM [1, 5] [%] | inhibition at 10 µM [2, 6] [%] | inhibition at 10 µM [3, 7] [%] | inhibition at 10 µM [4, 8] [%] | also measured
Nc1nc(F)nc2c1ncn2[C@@H]1O[C@H](COP(=O)(O)O)[C@@H](O)[C@@H]1O [Fludarabine Phosphate] | 19.1 | 17.3 | 21.8 | 53.9 | –
NS(=O)(=O)c1cc(C(=O)O)c(NCc2ccco2)cc1Cl [Furosemide] | -38.4 | 50.3 | -39 | -31.3 | –
Oc1c(Cl)cc(Cl)c(Cl)c1Cc1c(O)c(Cl)cc(Cl)c1Cl [Hexachlorophene] | – | – | – | – | inhibition at 10 µM [1]: 26.3%; inhibition at 10 µM [2]: -13.5%; inhibition at 10 µM [3]: 35%; inhibition at 10 µM [4]: 23%
CC(=O)[C@]1(O)Cc2c(O)c3c(c(O)c2[C@@H](O[C@H]2C[C@H](N)[C@H](O)[C@H](C)O2)C1)C(=O)c1ccccc1C3=O [Idarubicin HCl] | 43.5 | 54.8 | 79 | 73.5 | –
CN(C)CCCN1c2ccccc2CCc2ccccc21 [Imipramine HCl] | 13.7 | – | 1.9 | -6 | –
CNC[C@H](O)c1ccc(O)c(O)c1.O=C(O)C(O)C(O)C(=O)O [L-(−)-Epinephrine-(+)-Bitartrate] | – | – | – | – | % Inhibition, CML Average [1, 5]: 68.4%; % Inhibition, CLL Average [2, 6]: 45.4%; % Inhibition, AML Average [3, 7]: −2.8%; % Inhibition, ALL Average [4, 8]: 80.5%
CS(=O)(=O)CCNCc1ccc(-c2ccc3ncnc(Nc4ccc(OCc5cccc(F)c5)c(Cl)c4)c3c2)o1 [Lapatinib Ditosylate] | 76.6 | 6.9 | -76.1 | 35.1 | –
CC(C)(C)NC[C@H](O)COc1cccc2c1CCCC2=O [Levobunolol HCl] | -32.1 | 49.6 | 1.8 | -8 | –
CN(C)C(=O)C(CCN1CCC(O)(c2ccc(Cl)cc2)CC1)(c1ccccc1)c1ccccc1 [Loperamide HCl] | 69.3 | 16.3 | 18.5 | 54.9 | –
OC(c1cc(C(F)(F)F)nc2c(C(F)(F)F)cccc12)C1CCCCN1 (stereo not drawn) [Mefloquine HCl] | 90.4 | 50.5 | 72.7 | 87.7 | –
N[C@@H](Cc1ccc(N(CCCl)CCCl)cc1)C(=O)O [Melphalan] | 32.5 | 69.6 | 42.1 | 92.9 | –
Cc1ncc([N+](=O)[O-])n1CCO [Metronidazole] | -17.3 | 31 | -25.2 | -23.9 | –
Clc1ccc(COC(Cn2ccnc2)c2ccc(Cl)cc2Cl)c(Cl)c1 (stereo not drawn) [Miconazole] | 69.9 | -3.3 | 38.1 | -35.1 | –
O=C1c2c(O)ccc(O)c2C(=O)c2c(NCCNCCO)ccc(NCCNCCO)c21 [Mitoxantrone HCl] | 72.6 | 71.1 | 68.8 | 73.7 | –
COC(=O)C1=C(C)NC(C)=C(C(=O)OC)C1c1ccccc1[N+](=O)[O-] [Nifedipine] | 4.2 | -10.8 | 7.9 | 74.3 | –
O=c1[nH]c2ccccc2n1C1CCN(CCCC(c2ccc(F)cc2)c2ccc(F)cc2)CC1 [Pimozide] | 69 | 39.5 | 42.3 | 58.8 | –
CO[C@H]1/C=C/O[C@@]2(C)Oc3c(C)c(O)c4c(O)c(c(/C=N/N5CCN(C6CCCC6)CC5)c(O)c4c3C2=O)NC(=O)/C(C)=C\C=C\[C@H](C)[C@H](O)[C@@H](C)[C@@H](O)[C@@H](C)[C@H](OC(C)=O)[C@@H]1C [Rifapentine] | 76.5 | 12.3 | -3.2 | – | –
